Test results as given in patent US7632814B2, “HYD1 peptides as anti-cancer agents” (University of South Florida, priority 2006, dated 2009).
Where no end group is shown, it is not given here. [ ]: non-standard residue; d: D form.

Experiments:
Type in all cases: cell-based
[1] = tested on: prostate tumor cell; test: Random haptotaxis (cell migration) on laminin 322 (laminin 5); conditions: scrambled peptide HYDS indicates 100% cell migration
From the text: Defining the minimal region of HYD1 necessary to potentiate drug-induced apoptosis in suspension and adherent cultures is of interest. Below is a study to determine the minimal HYD1 sequence required to block prostate tumor cell migration. Similar studies as those outlined below and using the same peptide sequences will be used to determine the minimal amino acid sequence required for potentiation of drug induced apoptosis.
This response to the peptide is independent of disrupting adhesion to laminin 322 (laminin 5) since the cells were grown on a ligand before treatment with the peptide. […] All other alanine-substitution mutants resulted cell migration, i.e., a loss of peptide activity.
Using the negative control scrambled peptide, HYDS (SEQ ID NO:44), to indicate 100% cell migration, several truncated peptides including, ikmviswkg (SEQ ID NO:22), kmviswkg (SEQ ID NO:39), and kikmviswk (SEQ ID NO:37) were effective at blocking cell migration by approximately 50%.

[2] = tested on: H929 cells; test: Detection of apoptosis, annexin V staining and FACS, suspension culture; conditions: H929 cells, 200 μM ZVAD-FMK 30 minutes prior, apoptosis at 24 hours, annexin/PI
Description: (§1) FIG. 17 is a graph showing that HYD1 induces apoptosis as a single agent in 8226 and H929 cells cultured in suspension. 8226 and H929 cells were either treated with varying concentrations of HYD1 or vehicle control (equal volume sterile double distilled water) for 24 hours and apoptotic cells were detected by FACS analysis of annexin V positive cells. HYD1 specific apoptosis equals cell death due to peptide minus any apoptosis detected in control cells.
200 μM ZVAD-FMK was added to H929 cells for 30 minutes prior to the addition of either 75 μg/ml HYD1S or 15 μM Melphalan. Apoptosis was measured 24 hours after drug treatment by annexin/PI staining and apoptotic cells were detected by FACS analysis. Three independent experiments were performed and shown is a representative experiment.
Detection of Apoptosis. […] Blood, 1999; 93:1658-1667). The assay was performed in triplicate and 3 independent experiments were performed. Caspase 3 and 8 activity was measured at 6 and 24 hrs post peptide treatment per manufactures' instructions (BD Biosciences, San Jose, Calif.). The caspase assays were performed in triplicate and repeated twice.
(§2) Myeloma cells were plated at a density of 400,000 cells per ml in a 24 well plate. Cells were treated with the indicated dose of the peptide for 24 hours. Following 24 hrs of peptide exposure, apoptotic cells were detected using Annexin V staining and FACS analysis. Ten thousand events were analyzed by flow cytometry (Becton Dickinson, San Jose, Calif.). Experiments were performed in triplicate and repeated twice. Shown is a representative figure.

[3] = tested on: primary myeloma patient specimens; test: Melphalan-induced cell death in primary myeloma patient specimens, FN-adherent vs suspension
From the text: It has been reported that β1-integrin mediated adhesion of 8226 cells and K562 cells to FN blocked cell death induced by the alkylating agent melphalan (Damiano J S, et al. Blood. 1999; 93:1658-1667; Hazlehurst L A, et al. Cancer Res. 2003; 63:7900-7906). In order to determine whether the CAM-DR phenotype is a potential mechanism of clinical de novo drug resistance, melphalan-induced cell death was recently measured in primary myeloma patient specimens (See FIG. 2). Plasma cells were identified by either positive Kappa or Lambda staining, and apoptotic myeloma cells were identified by the Tunnel assay. 9 out of 10 patient specimens were protected from melphalan induced cell death when adherent to FN compared to suspension cultures.

[4] = tested on: MM1.S cells
From the text: FIGS. 4A-4E are a series of graphs showing that the BMS model protects myeloma MM1.S cells from melphalan (FIG. 4A), mitoxantrone (FIG. 4B), and dexamethasone (FIGS. 4C-4E) induced cell death. SF+A model confers the highest levels of resistance to cell death induced by either mitoxantrone or melphalan.
FIGS. 10A-10E are a series of graphs showing that the BMS model protects MM1.S cells from melphalan (FIG. 10A), mitoxantrone (FIG. 10B), dexamethasone (FIGS. 10C and 10D), and velcade (FIG. 10E) induced cell death.
The CAM-DR phenotype is tested by removing unadhered cells before the addition of drug. […] For this reason, the inventors chose to test for the reversal of drug resistance in adherent cells by using a bone marrow stroma (BMS) model (HS-5 cell line). In the BMS model of drug resistance, cell-cell adhesion is mediated by multiple adhesion moieties and thus the addition of a β1 blocking antibody is not sufficient to block tumor cell adhesion to the BMS cell line. The BMS model system is described in FIGS. 3A-D. These models have facilitated the availability of four discrete hematopoietic tumor populations. The first tumor population (FIG. 3A) is maintained in a traditional suspension culture in RPMI media containing 10% FBS (RM). Conditioned media is prepared by adding fresh RPMI media containing 10% FBS to HS-5 cells which are 75% confluent. After three hours, the media is then collected, centrifuged and stored at −70 for up to one month. This tumor cell culture condition is referred to as CM (FIG. 3B). The third tumor cell population consists of placing HS-5 cells in the bottom chamber and tumor cell in a top chamber that is separated by a membrane allowing for diffusion of soluble factors (see FIG. 3C). This condition is distinct from CM because it considers dynamic soluble interactions between the tumor cell and BMS cells (see FIG. 3D). […] Regardless of the cytotoxic agent used, the levels of drug resistance are greatest for myeloma cells which are adherent to the BMS. […]

[5] = tested on: ERK; test: Activation of ERK signaling; conditions: for activation of ERK: 10 minutes post-treatment
Description: HYD1, when introduced as a soluble ligand, completely blocks random hapotaxis on laminin 322 and enhanced cellular signals are coupled with the loss of cell motility. […] Using this endpoint as an indicator of HYD1 bioactivity, the truncated and alanine-substituted variants of HYD1 were tested for their ability to activate ERK. Activation of ERK at 10 minutes post-treatment was conserved with alanine-substitution only at the N-terminal lysine and C-terminal glycine (FIG. 16A-1). […] Taken together (FIG. 16C-2), the results (FIGS. 16A-1, 16A-2, 16B, 16C-1) indicate that activation of ERK signaling required ikmviswxx (SEQ ID NO:48).

[6] = tested on: 8226 cells; test: Detection of apoptosis, annexin V staining and FACS, suspension culture; conditions: 24 hours, annexin V
Description: as §1
Detection of Apoptosis. A flow cytometric assay measuring Annexin V/PI staining was used to measure apoptotic cells following 24 hours of peptide exposure as previously described (Damiano J S et al. Blood, 1999; 93:1658-1667). The assay was performed in triplicate and 3 independent experiments were performed. Caspase 3 and 8 activity was measured at 6 and 24 hrs post peptide treatment per manufactures' instructions (BD Biosciences, San Jose, Calif.). The caspase assays were performed in triplicate and repeated twice.
as §2

ikmviswkg (IKMVISWKG; HYD1 fragment)
blocking cell migration [1]: approximately 50%

N[C@@H](Cc1ccc(N(CCCl)CCCl)cc1)C(=O)O [melphalan]
protection from induced cell death by pan caspase inhibitor ZVAD-FMK [2]: blocked the majority
mean percent apoptosis of plasma cells adhered to FN ([3]; 200 μM melphalan, bone marrow aspirates, adhered to FN prior to treatment): 27.7%
mean percent apoptosis of plasma cells in suspension cultures ([3]; 200 μM melphalan, suspension cultures): 55.6%
patient specimens protected from melphalan induced cell death when adherent to FN ([3]; compared to suspension cultures, ten patients): 9 out of 10
resistance to drug induced cell death conferred by HS-5 stromal layer in the BMS model [4]: sufficient to confer resistance

kikmv (KIKMV; HYD1 fragment)
ERK signal of N-terminal region compared with C-terminal region [5]: stronger signal than iswkg
activation of ERK [5]: partial activation of ERK

CC(C)C[C@H](NC(=O)[C@H](Cc1ccccc1)NC(=O)c1cnccn1)B(O)O [velcade]
resistance to drug induced cell death conferred by HS-5 stromal layer in the BMS model [4]: sufficient to confer resistance

kmviswkg (KMVISWKG; HYD1 fragment)
blocking cell migration [1]: approximately 50%

kikmviswk ([dK][dI][dK][dM][dV][dI][dS][dW][dK]) [HYD1-g, C-terminus glycine deleted]
potency in inducing 8226 cell death compared to HYD1 [6]: increased potency
potency in inducing 8226 cell death compared to HYD1 ([6]; listed as kikmviswk): greater potency
blocking cell migration [1]: approximately 50%

O=C1c2c(O)ccc(O)c2C(=O)c2c(NCCNCCO)ccc(NCCNCCO)c21 [mitoxantrone]
resistance to drug induced cell death conferred by HS-5 stromal layer in the BMS model [4]: sufficient to confer resistance

iswkg (ISWKG; HYD1 fragment)
activation of ERK [5]: partial activation of ERK
